For the test, the system named is FGM. Nature of the test: Inhibition of importin alpha/beta-mediated nuclear transportation of Alexa555-BSA-NLS in human FGM cell nucleus at 500 uM after 30 mins by fluorescence microscopy. It counts as cell-based.

Active and inactive are the calls of the source. The rule behind the calls is not given here.

Consider `CC[C@H](C)[C@H](N)C(=O)Nc1ccc(C(=O)N[C@@H](Cc2ccc3ccccc3c2)C(=O)O)cc1OCC(C)C`, for which the inhibition entry is “inactive”.

For the compound `CSCC[C@H](N)C(=O)N1C[C@@H](C(=O)NCCc2c[nH]c3ccccc23)[C@H](C(=O)NCCc2c[nH]c3ccccc23)C1`, the inhibition result is “inactive”.

Regarding `C[C@H](N)C(=O)N1C[C@@H](C(=O)NCCc2c[nH]c3ccccc23)[C@H](C(=O)NCCc2c[nH]c3ccccc23)C1`, the inhibition result is “inactive”.

With `NCC(=O)Nc1ccc(C(=O)N[C@@H](CCc2ccccc2)C(=O)O)cc1OCc1ccccc1`, the inhibition result is “Active”.

`CC(C)COc1cc(C(=O)N[C@@H](Cc2ccc3ccccc3c2)C(=O)O)ccc1NC(=O)[C@H](C)N`: the inhibition entry is “Active”.

Turning to `CC(C)COc1cc(C(=O)N[C@@H](Cc2ccc3ccccc3c2)C(=O)O)ccc1NC(=O)[C@@H](N)Cc1c[nH]cn1`, the inhibition result is “inactive”.

For `CC(C)[C@H](N)C(=O)Nc1ccc(C(=O)N[C@@H](CCc2ccccc2)C(=O)O)cc1OCc1ccccc1`, the inhibition entry was “Active”.

As to `CC(C)COc1cc(C(=O)N[C@@H](Cc2ccc3ccccc3c2)C(=O)O)ccc1NC(=O)[C@@H](N)CC(N)=O`, the inhibition result was “inactive”.

Take `N[C@@H](Cc1c[nH]c2ccccc12)C(=O)Nc1ccc(C(=O)N[C@@H](CCc2ccccc2)C(=O)O)cc1OCc1ccccc1`: the inhibition result is “inactive”.

Take `C[C@@H](O)[C@H](N)C(=O)Nc1ccc(C(=O)N[C@@H](CCc2ccccc2)C(=O)O)cc1OCc1ccccc1`: the inhibition result is “Active”.

For `CC(C)COc1cc(C(=O)N[C@@H](Cc2ccc3ccccc3c2)C(=O)O)ccc1NC(=O)[C@@H](N)Cc1ccc(Cl)cc1`, the inhibition entry is “inactive”.

Consider `CC(C)[C@H](N)C(=O)N1C[C@@H](C(=O)NCCc2c[nH]c3ccccc23)[C@H](C(=O)NCCc2c[nH]c3ccccc23)C1`, for which the inhibition result was “inactive”.

Take `CC(C)COc1cc(C(=O)N[C@@H](Cc2ccc3ccccc3c2)C(=O)O)ccc1NC(=O)[C@@H](N)Cc1ccccc1`: the inhibition result was “Active”.

On to `N[C@@H](CCc1ccc(O)cc1)C(=O)N1C[C@@H](C(=O)NCCc2c[nH]c3ccccc23)[C@H](C(=O)NCCc2c[nH]c3ccccc23)C1`, for which the inhibition result was “inactive”.

Take `N[C@@H](Cc1c[nH]cn1)C(=O)Nc1ccc(C(=O)N[C@@H](CCc2ccccc2)C(=O)O)cc1OCc1ccccc1`: the inhibition result is “inactive”.

On to `CC(C)COc1cc(C(=O)N[C@@H](Cc2ccc3ccccc3c2)C(=O)O)ccc1NC(=O)[C@@H](N)CO`, for which the inhibition entry is “inactive”.

For `N[C@@H](CO)C(=O)Nc1ccc(C(=O)N[C@@H](CCc2ccccc2)C(=O)O)cc1OCc1ccccc1`, the inhibition entry was “Active”.

Regarding `C[C@H](N)C(=O)Nc1ccc(C(=O)N[C@@H](CCc2ccccc2)C(=O)O)cc1OCc1ccccc1`, the inhibition result is “inactive”.

Consider `CC(C)COc1cc(C(=O)N[C@@H](Cc2ccc3ccccc3c2)C(=O)O)ccc1NC(=O)[C@@H](N)[C@@H](C)O`, for which the inhibition entry is “inactive”.

For `N[C@@H](Cc1ccc2ccccc2c1)C(=O)Nc1ccc(C(=O)N[C@@H](CCc2ccccc2)C(=O)O)cc1OCc1ccccc1`, the inhibition entry is “inactive”.

On to `CC(C)COc1cc(C(=O)N[C@@H](Cc2ccc3ccccc3c2)C(=O)O)ccc1NC(=O)[C@@H](N)Cc1ccc2ccccc2c1`, for which the inhibition entry is “inactive”.

In the case of `C[C@@H](O)[C@H](N)C(=O)N1C[C@@H](C(=O)NCCc2c[nH]c3ccccc23)[C@H](C(=O)NCCc2c[nH]c3ccccc23)C1`, the inhibition entry is “inactive”.

Turning to `CC[C@H](N)C(=O)Nc1ccc(C(=O)N[C@@H](CCc2ccccc2)C(=O)O)cc1OCc1ccccc1`, the inhibition entry is “Active”.

Take `CC(C)COc1cc(C(=O)N[C@@H](Cc2ccc3ccccc3c2)C(=O)O)ccc1NC(=O)[C@@H](N)Cc1ccc(O)cc1`: the inhibition entry is “Active”.

`N[C@@H](Cc1ccccc1)C(=O)Nc1ccc(C(=O)N[C@@H](CCc2ccccc2)C(=O)O)cc1OCc1ccccc1`: the inhibition result is “Active”.

For the origin of these results see ChEMBL document CHEMBL1828601, “Small molecule peptidomimetic inhibitors of importin α/β mediated nuclear transport” (Bioorg Med Chem, 2010).
